Marks after values point to notes of the source that are not given here. A value given as a limit tells only on which side of the number the result lay.

The subject of data set [1] is isolated rat heart. Nature of the data set: Isolated rat heart infarction study after oral treatment (cardioprotective activity). In kind it is in vivo, Wistar rats. Particulars: for Infarct size, % of control: 20 mg/kg p.o. daily, after 2 weeks of treatment (method: 8 weeks), hearts excised 24 h after last dose, 60 min occlusion, 150 min reperfusion, mean ± s.e.m. of 9-10 animals; for Therapeutical (cardioprotective) effect, in words / Decrease of infarct size: 20 mg/kg p.o., isolated rat heart infarction model; for Decrease of infarct size: versus control. Here is the method:
Fifty male, 10 weeks old Wistar rats weighing 200-250 g were housed under standard conditions (21-23° C., 12 h light-dark cycle) with unlimited access to food (R3 diet, Lactamin AB, Sweden) and water.
Rats were adapted to local conditions for two weeks before the start of treatment. Meldonium dihydrate at a dose of 20 mg/kg, gamma-butyrobetaine at a dose of 20 mg/kg and 4-[(chloromethyl)(dimethyl) ammonio]butanoate at dose of 20 mg/kg were administered p.o. daily for 8 weeks. Control rats received water.
The isolated rat heart experiment was performed essentially as described earlier (Liepinsh et al., J. Cardiovasc. Pharmacol. 2006; 48(6):314-9). Twenty-four hours after the last drug administration hearts were excised and retrogradely perfused via the aorta at a constant pressure with oxygenated Krebs-Henseleit buffer at 37° C. The heart rate, left ventricle end-diastolic pressure and left ventricle developed pressure were continuously recorded. Coronary flow was measured using an ultrasound flow detector (HSE) and the PowerLab 8/30 system from ADInstruments. The hearts were perfused for 20 min to stabilize the hemodynamic functions and then occlusion was performed for 60 min by constricting threads through a plastic tube. Successful occlusion was confirmed by a coronary flow decrease of about 40 percent. Reperfusion was achieved by releasing the threads. At the end of the 150-min reperfusion period, the risk zone was delineated with 0.1% methylene blue. The hearts were then sectioned transversely from the apex to the base in five slices 2 mm in thickness and incubated in 1% triphenyltetrazolium chloride in phosphate buffer (pH 7.4, 37° C.) for 10 min to stain viable tissue red and necrotic tissue white. Computerized planemetric analysis of Sony A900 photographs was performed using Image-Pro Plus 6.3 software to determine the area at risk and area of necrosis expressed as a % of the left ventricle. The obtained values were then used to calculate the infarct size (IS) as a % of risk area according to the formula: Infarct Size=Area of Necrosis/Area at Risk×100%. Effects in Isolated Rat Heart Infarction Model
The anti-infarction effect of examined substances was investigated in an isolated rat heart infarction model. During occlusion of left coronary artery, the coronary flow in all experimental groups was decreased for 40% (from 11 ml/min to 7 ml/min). Moreover, the drop of developed left ventricular pressure for 50% was observed. […] In reperfusion stage, coronary flow, developed left ventricular pressure, ±dp/dt values were recovered till about 80% of control level. There were no significant differences between control and treatment groups.
Effects of Meldonium dihydrate (20 mg/kg), gamma-butyrobetaine (20 mg/kg) and 4-[(chloromethyl)(dimethyl) ammonio]butanoate (20 mg/kg) after 2 weeks of treatment on infarct size in the isolated rat heart infarction experiment are presented in Table 1.
Rats were adapted to local conditions for two weeks before the start of treatment. Meldonium dihydrate at a dose of 20 mg/kg, gamma-butyrobetaine at a dose of 20 mg/kg and 3-carboxy-N-(2-chloroethyl)-N,N-dimethylpropan-1-aminium chloride at dose of 20 mg/kg were administered p.o. daily for 8 weeks. Control rats received water.
Effects of Meldonium dihydrate (20 mg/kg), gamma-butyrobetaine (20 mg/kg) and 3-carboxy-N-(2-chloroethyl)-N,N-dimethylpropan-1-aminium chloride (20 mg/kg) after 2 weeks of treatment on infarct size in the isolated rat heart infarction experiment are presented in Table 2.
The same experimental conditions as above were used for testing 3-carboxy-N-(2-fluoroethyl)-N,N-dimethylpropan-1-aminium chloride.
Effects of Meldonium dihydrate (20 mg/kg), gamma-butyrobetaine (20 mg/kg) and 3-carboxy-N-(2-fluoroethyl)-N,N-dimethylpropan-1-aminium chloride (20 mg/kg) after 2 weeks of treatment on infarct size in the isolated rat heart infarction experiment are presented in Table 3.

For data set [2] the following is noted: s.c.; cited from earlier work.

As to `C[N+](C)(CCCl)CCCC(=O)O.[Cl-]` [3-carboxy-N-(2-chloroethyl)-N,N-dimethylpropan-1-aminium chloride], the melting point turned out to be 130 °C. In data set [1], the “Infarct size, % of control” value is 59.9 ± 7.6*^,#,$ % of control; the “Therapeutical (cardioprotective) effect, in words” value (“Therapeutical” for short) was “best therapeutical effect”; the “Decrease of infarct size” value was determined as 41.1%.
Regarding `C[N+](C)(CCF)CCCC(=O)O.[Cl-]` [3-carboxy-N-(2-fluoroethyl)-N,N-dimethylpropan-1-aminium chloride], in data set [1], the “Infarct size, % of control” value is recorded as 65.5 ± 9.1*^,#,$ % of control; the “Therapeutical” value is reported as “best therapeutical effect”; the “Decrease of infarct size” value was 34.5%.
The compound `C[N+](C)(CCl)CCCC(=O)[O-]` [4-[(chloromethyl)(dimethyl)ammonio]butanoate] returned a melting point of 100.5 to 101 °C. Besides, in data set [1], the “Infarct size, % of control” value is given as 65.2 ± 6.8*^,#,$ % of control; the “Therapeutical” value is reported as “best therapeutical effect”; the “Decrease of infarct size” value was 34.8%.
`C[N+](C)(C)CCCC(=O)[O-]` [Gamma-butyrobetaine, γ-Butyrobetaine, reference compound]: in data set [1], the “Infarct size, % of control” value is reported as 87.6 ± 11.4 % of control and the “Decrease of infarct size” value is recorded as approximately 12.4%. The LD50 in data set [2] is on record as more than 7000 mg/kg.
In the case of `C[N+](C)(C)NCCC(=O)[O-]` [Meldonium dihydrate, 3-(2,2,2-Trimethylhydrazinium) propionate dihydrate, reference compound], the “Infarct size, % of control” value in data set [1] was 117.9 ± 7.9 % of control.

A word on the melting point: it is the temperature, or range, at which the solid turns liquid. As usually defined, the LD50 is the dose expected to kill half of the subjects tested.

These data come from patent publication US8940793B2, “4-[(haloalkyl)(dimethyl)ammonio]butanoates and use thereof in the treatment of cardiovascular disease” (JSC Grindeks, priority 2011, dated 2015).
